What all share (type): functional
Experiment [1] concerns Rattus norvegicus. The experiment can be described thus: Antiallergic activity in the rat passive cutaneous anaphylaxis (PCA) test upon peroral administration. The conditions noted are these: po, read-out: ID50 (the source's name).
For experiment [2], the system named is Rattus norvegicus. The experiment can be described thus: Antiallergic activity in the rat passive cutaneous anaphylaxis (PCA) test at 32 mg/kg upon peroral administration. The settings on record: route oral.
For experiment [3], the system named is Rattus norvegicus. As to the kind of experiment: Antiallergic activity in the rat passive cutaneous anaphylaxis (PCA) test at 16 mg/kg upon intraperitoneal administration. The settings on record: ip.
The subject of experiment [4] is Rattus norvegicus. The experiment can be described thus: Antiallergic activity in the rat passive cutaneous anaphylaxis (PCA) test upon intraperitoneal administration of 16 mg/kg of the compound. The conditions noted are these: ip.
Experiment [5] has as its system Rattus norvegicus. The experiment can be described thus: Antiallergic activity in the rat passive cutaneous anaphylaxis (PCA) test at 32 mg/kg upon peroral administration after 10-minute pretreatment time. The settings on record: route oral.
Experiment [6] concerns Rattus norvegicus. As to the kind of experiment: Antiallergic activity in the rat passive cutaneous anaphylaxis (PCA) test upon peroral administration; (range of 0.89-6.85). The conditions noted are these: po, read-out: ID50 (the source's name).
Experiment [7] relates to Rattus norvegicus. The experiment can be described thus: Antiallergic activity in the rat passive cutaneous anaphylaxis (PCA) test at 32 mg/kg upon peroral administration with a 10-minute pretreatment time. The conditions noted are these: route oral.
Experiment [8] concerns Rattus norvegicus. The experiment can be described thus: Antiallergic activity in the rat passive cutaneous anaphylaxis (PCA) test upon peroral administration; (range = 0.98-4.02). The conditions noted are these: po, read-out: ID50 (the source's name).
Experiment [9] relates to Rattus norvegicus. The experiment can be described thus: Antiallergic activity in the rat passive cutaneous anaphylaxis (PCA) test upon peroral administration;(range = 0.07-0.23). The conditions noted are these: po, read-out: ID50 (the source's name).
The test system of experiment [10] is Rattus norvegicus. As to the kind of experiment: Antiallergic activity in the rat passive cutaneous anaphylaxis (PCA) test upon peroral administration; (range = 0.08-0.18). The settings on record: po, read-out: ID50 (the source's name).
For experiment [11], the system named is Rattus norvegicus. The experiment can be described thus: Antiallergic activity in the rat passive cutaneous anaphylaxis (PCA) test upon peroral administration; (range = 0.58-1.91). The settings on record: po, read-out: ID50 (the source's name).
For experiment [12], the system named is Rattus norvegicus. As to the kind of experiment: Antiallergic activity in the rat passive cutaneous anaphylaxis (PCA) test upon peroral administration; (range = 0.04-0.14). The settings on record: po, read-out: ID50 (the source's name).
Experiment [13] has as its system Rattus norvegicus. The experiment can be described thus: Antiallergic activity in the rat passive cutaneous anaphylaxis (PCA) test upon peroral administration; (range = 0.18-0.61). The conditions noted are these: po, read-out: ID50 (the source's name).
The subject of experiment [14] is Rattus norvegicus. As to the kind of experiment: Antiallergic activity in the rat passive cutaneous anaphylaxis (PCA) test upon peroral administration; (range = 2.14-29.01). The conditions noted are these: po, read-out: ID50 (the source's name).
In experiment [15] the test system is Rattus norvegicus. As to the kind of experiment: Antiallergic activity in the rat passive cutaneous anaphylaxis (PCA) test upon intraperitoneal administration of 8 mg/kg of the compound. The conditions noted are these: ip.

Broadly, the inhibition in vivo is how much of the control response was suppressed.

Regarding `Cc1cn2c(=O)c3cc(C(=O)O)ccc3nc2s1`, in the experiment with Rattus norvegicus [1], the ED50 is over 10 mg/kg. The compound further displayed an inhibition in vivo at 32 mg/kg in the experiment on Rattus norvegicus [2] of 79%.

In the experiment with Rattus norvegicus [3], `CC(C)c1cc2c(=O)n3cc(C(=O)O)ccc3nc2s1` yielded an inhibition in vivo at 16 mg/kg of 89%. Moreover, in the experiment with Rattus norvegicus [2], testing at 32 mg/kg gave an inhibition in vivo of 54%.

For the compound `CC(C)c1cc(C(C)C)c2nc3sc(C(=O)O)cn3c(=O)c2c1`, the inhibition in vivo at 16 mg/kg in the experiment with Rattus norvegicus [3] came out at 100%. Moreover, the ED50 with Rattus norvegicus [1] was over 10 mg/kg. Also, the inhibition in vivo at 32 mg/kg in the experiment on Rattus norvegicus [2] amounted to 19%.

For `CC(C)Cc1ccc2nc3sc(C(=O)O)cn3c(=O)c2c1`, in the experiment with Rattus norvegicus [4], the inhibition in vivo at 16 mg/kg was 62%. In the experiment with Rattus norvegicus [5], the inhibition in vivo at 32 mg/kg stood at 78%. The ED50 in the experiment on Rattus norvegicus [6] worked out at 2.12 mg/kg.

Turning to `C[S+]([O-])c1ccc2nc3sc(C(=O)O)cn3c(=O)c2c1` (stereo unspecified), the inhibition in vivo at 16 mg/kg with Rattus norvegicus [4] was 55%. Moreover, the inhibition in vivo at 32 mg/kg in the experiment on Rattus norvegicus [7] was 67%. In the experiment on Rattus norvegicus [8], the ED50 stood at 1.82 mg/kg.

On to `CSc1ccc2nc3sc(C(=O)O)cn3c(=O)c2c1`, for which the ED50 in the experiment with Rattus norvegicus [9] was 0.12 mg/kg. Further, in the experiment with Rattus norvegicus [2], testing at 32 mg/kg gave an inhibition in vivo of 87%.

In the experiment with Rattus norvegicus [4], `CC(C)c1cn2c(=O)c3cc(C(=O)O)ccc3nc2s1` gave an inhibition in vivo at 16 mg/kg of 100%. The ED50 in the experiment with Rattus norvegicus [10] came to 0.11 mg/kg. In the experiment with Rattus norvegicus [2], this compound came in with an inhibition in vivo at 32 mg/kg of 100%.

`CCC(C)c1ccc2nc3sc(C(=O)O)cn3c(=O)c2c1` (stereo unspecified) yielded an inhibition in vivo at 16 mg/kg in the experiment with Rattus norvegicus [4] of 59%. In the experiment on Rattus norvegicus [11], the ED50 is 1.01 mg/kg. The inhibition in vivo at 32 mg/kg with Rattus norvegicus [5] was found to be 64%.

The compound `COc1cc2nc3sc(C(=O)O)cn3c(=O)c2cc1OC` had an inhibition in vivo at 16 mg/kg with Rattus norvegicus [4] of 89%.

In the experiment on Rattus norvegicus [4], `O=C(O)c1cn2c(=O)c3ccccc3nc2s1` had an inhibition in vivo at 16 mg/kg of 80%.

Take `O=C(O)c1ccc2nc3sccn3c(=O)c2c1`: in the experiment on Rattus norvegicus [4], the inhibition in vivo at 16 mg/kg turned out to be 62%. Also, in the experiment with Rattus norvegicus [1], the ED50 was over 10 mg/kg. Besides, the inhibition in vivo at 32 mg/kg in the experiment on Rattus norvegicus [2] was 66%.

Consider `COc1ccc2nc3sc(C(=O)O)cn3c(=O)c2c1`, for which at 16 mg/kg the inhibition in vivo in the experiment on Rattus norvegicus [4] was 100%. In the experiment with Rattus norvegicus [12], the ED50 is 0.07 mg/kg. For the same compound, in the experiment with Rattus norvegicus [2], the inhibition in vivo at 32 mg/kg is 78%.

The compound `CC(C)c1ccc2nc3sc(C(=O)O)cn3c(=O)c2c1` had an inhibition in vivo at 16 mg/kg in the experiment on Rattus norvegicus [3] of 89%. The ED50 in the experiment with Rattus norvegicus [13] was found to be 0.33 mg/kg. In the experiment with Rattus norvegicus [2], this compound registered an inhibition in vivo at 32 mg/kg of 86%.

For `O=C(O)c1cn2c(=O)c3cc(C4CC4)ccc3nc2s1`, the ED50 in the experiment on Rattus norvegicus [14] came out at 6.02 mg/kg. The same compound gave an inhibition in vivo at 32 mg/kg in the experiment with Rattus norvegicus [2] of 100%.

Regarding `O=C(O)c1cc(=O)c2c(OCC(O)COc3cccc4oc(C(=O)O)cc(=O)c34)cccc2o1` [CROMOLYN SODIUM], the inhibition in vivo at 32 mg/kg in the experiment on Rattus norvegicus [5] stood at 18%. The compound further showed an inhibition in vivo at 8 mg/kg in the experiment with Rattus norvegicus [15] of 46%.
